This is an account of results in patent publication EP0445062A1, “4(1H)Quinolone derivatives” (LABORATORIOS ALMIRALL SA, priority 1990, dated 1991).

One series deals with anaesthetized rats. Kind of series: Vasodilator activity in anaesthetized rats (fall in mean blood pressure). It counts as in vivo, Wistar rats. The conditions noted are these: Rattus norvegicus, iv; dose producing 30% fall in mean blood pressure; i.v. bolus injection; read-out: MAN BP IN THE ANAESTH. RAT ED30. The protocol:
Vasodilator activity in anaesthetized rats
Male Wistar rats of weight range 300-400 g were anaesthetized with pentobarbital (60 mg/kg i.p.). The trachea was canulated to permit artificial respiration. A carotid artery and a jugular vein were cannulated to permit recording of mean arterial blood pressure and i.v. administration of drugs respectively.
Following a period of stabilisation (20 min), flosequinan or test drugs were administered by bolus injection and falls in mean blood pressure recorded. Responses were measured as the percentage fall in blood pressure over control, calculating the dose that produced an effect of 30% (ED₃₀).

Series [1] deals with Guinea-pig isolated tracheal rings. Kind of series: Guinea-pig isolated tracheal rings (spontaneous tone), relaxation. The arrangement: species or system guinea-pigs. The conditions noted are these: Cavia porcellus, concentration producing 50% relaxation, isoprenaline 10^-6 M response = 100%, read-out: TRACHEAL RING EC50. As to the method:
Guinea-pig isolated tracheal rings (spontaneaus tone)
Male guinea-pigs (400-500 g) were killed, and their tracheae were removed and cut into pairs of rings. The rings were then mounted in organ baths containing Krebs-Henseleit solution at 37°C and oxygenated with […] under 1 g resting tension (Allen et al., Br.J.Pharmacol.(1986),89,395). After a 1 hour stabilization period, responses to isoprenaline 10⁻⁶ M were obtained. Tissues were then washed and after a period for restabilization (20 min) the effects of test drugs and flosequinan were investigated by adding cumulative concentrations of these to the baths.
Responses were measured as the percentage of the relaxation response to isoprenaline 10⁻⁶ M. The concentration producing a 50% relaxation taking isoprenaline responses as 100% (EC₅₀) was calculated.

Series [2] relates to Guinea-pig isolated right ventricular strips. Kind of series: Guinea-pig isolated right ventricular strips, increase in developed tension. The arrangement: species or system guinea-pigs. The conditions noted are these: Cavia porcellus, stimulated at 1 Hz; for activation at 1 µM: percentage increase in developed tension at 10^-6M, read-out: VENTRICULAR STRIP % (10-6M); for activation at 10 µM: percentage increase in developed tension at 10^-5 M, read-out: VENTRICULAR STRIP % at 10-5 M. As to the method:
Guinea-pig isolated right ventricular strips
Male guinea-pigs of weight 400-500 g were killed, their hearts were removed and 2 ventricular preparations (ca 1 cm x 1 mm) cut from the right bide. There were then mounted in organ baths containing modified Krebs-Henseleit solution at 37°C and continually aereated with […]. The preparations were placed under 1 g resting tension and electrically stimulated to contract at 1 Hz whilst force of contraction was measured using an isometric force transducer (Gristwood and Owen, Br.J.Pharmacol. (1985),87,91P). Preparations were equilibrated for 60 min during which they were washed every 15 min with fresh buffer. Flosequinan and test compounds were added to the organ baths from 10^-6 to 10^-4 M concentrations and responses measured as percentage increases in developed tension.

Series [3] has as its system Conscious renal hypertensive beagle dogs. Kind of series: Conscious renal hypertensive beagle dogs, fall in mean blood pressure after oral dosing. The conditions noted are these: oral by gavage; for CONSC.HYPERT. DOG AUC (0-4h) at mg/kg po: dose not given; for CONSC.HYPERT. DOG AUC (0-4h) (1 mg/kg): 1 mg/kg po. The format is in vivo. As to the method:
Conscious renal hypertensive beagle dogs
Male beagle dogs were made hypertensive by the method of Page (J.Amer.Med.Assoc.(1939),113,2046). Two months later, these animals were prepared with exteriorized carotid loops (Gristwood et al., Br.J.Pharmacol. (1988),93,893) three weeks before using for experimentation. Animals were fasted 17 hours before administration of flosequinan or test compounds orally. Animals were then placed in restraints and allowed to settle for 1 hour. Mean blood pressure (MBP) was measured by puncturing the carotid loop with a 18G needle attached to a pressure transducer. Drugs (suspended in 1% methylcellulose + 0.05% Tween 80) were given orally by gavage at different doses, and mean blood pressure was measured over 4 hours using a polygraph. Drug responses were measured by calculating the area under the curve of percentage fall in mean blood pressure and time (units= % fall in MBP x hours) (Allen et al., J.Clin.Pharmacol.(1982),1S-23S).

Another series deals with male Swiss mice. As to the kind of experiment: Acute toxicity in mice. It counts as in vivo. Particulars: intraperitoneal, deaths after 48 hours, doses up to 300 mg/kg. The protocol:
Acute toxicity of each compound was determined in groups of 5 male Swiss mice per dose. Administration of flosequinan and test compounds was made by the intraperitoneal route up the dose of 300 mg/kg. After 48 hours the number of deaths was noted and the dose producing 100% of deaths (LD₁₀₀) was calculated.

The conditions of series [4]: J. Het. Chem. 23, 1801 (1986); cited from earlier work.
The conditions of series [5]: Chemical Abstracts Vol. 71, 113122 a (1969); cited from earlier work.

In general, EC50 refers to the concentration that produces a half-maximal response.

On to `Cn1cc(NS(C)(=O)=O)c(=O)c2ccc(Cl)cc21` [Compound 4, 1-methyl-3-methylsulfonylamino-7-chloro-4(1H)quinolone], for which, in the series with anaesthetized rats, the ED30 is 0.01 mg/kg. Further, the EC50 in series [1] is 500 nM. Moreover, in series [2], the activation at 1 µM turned out to be 55%. In series [3], the “CONSC.HYPERT. DOG AUC (0-4h) at mg/kg po” value stood at 68 % fall in MBP x hours. The “LD100 IN MICE” value in the series on male Swiss mice is listed as >300 mg/kg ip.

As to `Cn1cc(NS(C)(=O)=O)c(=O)c2cc(F)ccc21` [Compound 3, 1-methyl-3-methylsulfonylamino-6-fluoro-4(1H)quinolone], the ED30 in the series with anaesthetized rats amounted to 0.06 mg/kg. For the same molecule, in series [1], the EC50 was 600 nM. The activation at 10 µM in series [2] was 53%. For the same molecule, the “CONSC.HYPERT. DOG AUC (0-4h) (1 mg/kg)” value in series [3] is given as 51 (1 mg/kg) % fall in MBP x hours. In the series with male Swiss mice, the “LD100 IN MICE” value is given as >300 mg/kg ip.

Consider `Cn1cc([S+](C)[O-])c(=O)c2ccc(F)cc21` (centres unmarked) [FLOSEQUINAN, 7-fluoro-1-methyl-3-methylsulfinyl-4(1H)quinolone, reference compound], for which the ED30 in the series with anaesthetized rats is 0.2 mg/kg. In addition, in series [1], the half-maximal effective concentration (EC50) was found to be 3000 nM. For the same molecule, in series [2] (percentage increase in developed tension at 10^-4M, read-out: VENTRICULAR STRIP % (10-4M)), the activation at 100 µM amounted to 75%. The “CONSC.HYPERT. DOG AUC (0-4h) at mg/kg po” value in series [3] is listed as 41 % fall in MBP x hours. For the same molecule, the “LD100 IN MICE” value in the series on male Swiss mice is 300 mg/kg ip.

As for `COc1ccc2c(c1)c(=O)c(NS(C)(=O)=O)cn2C` [Compound 11], the ED30 in the series with anaesthetized rats was determined as 0.05 mg/kg. Also, the EC50 in series [1] stood at 1600 nM. Further, the activation at 10 µM in series [2] stood at 52%. Further, the “LD100 IN MICE” value in the series on male Swiss mice was >300 mg/kg ip.

Regarding `Cn1cc(NS(C)(=O)=O)c(=O)c2ccc(C(F)(F)F)cc21` [Compound 5], the ED30 with anaesthetized rats came out at 0.03 mg/kg. Besides, the EC50 in series [1] came out at 420 nM. The activation at 1 µM in series [2] is 35%. Besides, the “LD100 IN MICE” value with male Swiss mice is recorded as >300 mg/kg ip.

`Cn1cc(NS(C)(=O)=O)c(=O)c2ccccc21` [Compound 1, 1-methyl-3-methylsulfonamido-4(1H) quinolone]: the ED30 in the series with anaesthetized rats was 0.02 mg/kg. Moreover, in series [1], the EC50 worked out at 240 nM. The activation at 10 µM in series [2] worked out at 82%. The “CONSC.HYPERT. DOG AUC (0-4h) (1 mg/kg)” value in series [3] is reported as 54 (1 mg/kg) % fall in MBP x hours. The “LD100 IN MICE” value in the series with male Swiss mice was >300 mg/kg ip.

Regarding `Cn1cc(NS(C)(=O)=O)c(=O)c2ccc(F)cc21` [Compound 6, 1-methyl-3-methylsulfonylamino-7-fluoro-4(1H)quinolone], the ED30 in the series on anaesthetized rats came out at 0.01 mg/kg. Besides, the EC50 in series [1] was found to be 360 nM. Moreover, the activation at 10 µM in series [2] came to 86%. Besides, the “CONSC.HYPERT. DOG AUC (0-4h) at mg/kg po” value in series [3] is given as 65 % fall in MBP x hours. Also, the “LD100 IN MICE” value in the series on male Swiss mice is on record as >300 mg/kg ip.

For `CCn1cc(NS(C)(=O)=O)c(=O)c2cc(F)c(Cl)cc21` [A], in series [4], the antibacterial activity result is given as “does not exhibit any interesting antibacterial activity”.

For `Cn1cc(N)c(=O)c2ccccc21` [1-methyl-3-amino-4(1H)quinolone], the pharmacological activities entry in series [5] is reported as “no appreciable pharmacological activities”.
